IC50 data for 26 molecules are collected here from US7973051B2 (Hoffman-La Roche Inc., priority 2007, dated 2011).

This assay deals with T1, human liver FBPase (Homo sapiens, UniProt P09467).
T1 construct: made in house; host or cells: E. coli
T1 sequence (P09467 2-338 limits assumed): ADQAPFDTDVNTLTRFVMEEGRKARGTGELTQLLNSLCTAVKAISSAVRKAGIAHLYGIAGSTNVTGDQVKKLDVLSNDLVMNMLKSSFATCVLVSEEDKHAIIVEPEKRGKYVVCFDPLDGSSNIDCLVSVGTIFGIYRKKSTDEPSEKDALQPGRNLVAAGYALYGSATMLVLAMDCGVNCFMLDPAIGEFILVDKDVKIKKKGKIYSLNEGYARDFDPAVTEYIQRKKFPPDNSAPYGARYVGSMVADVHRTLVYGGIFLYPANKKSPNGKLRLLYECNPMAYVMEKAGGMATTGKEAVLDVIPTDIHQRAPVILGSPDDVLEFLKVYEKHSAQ
As to the kind of experiment: FBPase assay: inorganic phosphate release (malachite green). The format is biochemical. The conditions noted are these: recombinant human liver FBPase, 50 μM fructose-1,6-bisphosphate, read-out at 620 nm. As for the experimental part: The following tests were carried out for evaluating the inhibitory activity of the compounds of the present invention against human liver FBPase (Swissprot Data base reference P09467, entry F16P_HUMAN).
Human liver FBPase cDNA (NM_000507) was purchased from Origene Technologies, Inc, subcloned in a vector for expression in E. Coli., and sequenced. Recombinant human liver FBPase (hlFBPase) was purified according to the following protocol that uses heat denaturation similarly to that described by El-Maghrabi et. al. [El-Maghrabi, M. R. et al. “Isolation of a human liver fructose-1,6-bisphosphatase cDNA and expression of the protein in Escherichia coli.” J Biol Chem 268:9466-9472, 1993.]. Briefly, E. coli cells, transiently expressing very high levels of soluble and active human liver FBPase, were suspended in 20 mM Tris-HCl pH 7.5, 1 mM EDTA, 1 mM DTT and were lysed by French press. The soluble extract was heat denatured at 65° C. for 5 min, and insoluble, denatured proteins were removed by centrifugation. The extract was then applied to a BioRad Macro-Prep High Q column equilibrated with 20 mM Tris-HCl pH 7.5, 1 mM EDTA, 1 mM DTT and the flow-through (containing FBPase activity) was collected and applied to a BioRad Macro-Prep HS column equilibrated with 20 mM HEPES pH 7.2, 1 mM DTT. A gradient of increasing NaCl concentration was then applied to the HS column and fractions were collected. Fractions containing active FBPase were pooled and further purified by size exclusion chromatography on a Sephacryl S200 column equilibrated in 20 mM Tris-HCl pH 7.5, 150 mM NaCl, 1 mM EDTA, 1 mM DTT. Purity of the enzyme preparation was >90% as assessed by Mass spectrometry.
Recombinant human liver FBPase (hlFBPase) activity was assayed through measuring the inorganic phosphate release that results from the hydrolysis of Fructose-1,6-bisphosphate by the enzyme. As described by Baykov A. A. et al. in [Baykov A. A et al., “Malachite Green procedure for orthophosphate determination and its use in alkaline phosphatase-based enzyme immunoassays”. Anal. Biochem., 171:266-270, 1988], inorganic phosphate can be readily quantified by spectrophotometry at 620 nm after complexation with ammonium molybdate/malachite green reagent. Enzymatic reaction was carried out with modifications of the procedure described by Wright S. W. et al. [Wright S. W. et al., “Anilinoquinazoline inhibitors of Fructose-1,6-bisphosphatase bind to a novel allosteric site: synthesis, in vitro characterization, and X-ray crystallography”. J. Med. Chem. 45:3865-3877, 2002]. Specifically, the reaction was carried out in 96 well plates in a final volume of 100 μl in the presence or in the absence of allosteric inhibitors. Reaction was started adding 25 ng of hlFBPase to the reaction mixture containing 50 mM HEPES-KOH buffer pH 7.2, 2 mM MgCl2, 2 mM EDTA, 1 mM DTT, 50 μM fructose-1,6-bisphosphate and 1% DMSO. After 50 minutes incubation at room temperature, the phosphate released was allowed to form a colored complex for 10 min by adding 150 μl of ammonium molybdate/malachite green reagent containing 0.03% malachite green, 0.2% ammonium molybdate, 0.05% Triton X-100 and 0.7 M H2SO4 in water that was stirred for 30 min at room temperature and filtered through 0.2 μm filter. Under these conditions, the assay was linear with time and able to detect FBPase inhibition after spectrophotometric read-out at 620 nm.
By IC50 is commonly meant the midpoint of a concentration-inhibition curve. As to `CCc1nc(NC(=O)NS(=O)(=O)c2csc(C)c2)sc1Br` [Example 57, N-[(5-Bromo-4-ethyl-1,3-thiazol-2-yl)carbamoyl]-5-methylthiophene-3-sulfonamide], the IC50 amounted to 188 nM.

Turning to `CCc1nc(NC(=O)NS(=O)(=O)c2cc(C)c(CCOC)s2)sc1Br` [Example 58, N-[(5-Bromo-4-ethyl-1,3-thiazol-2-yl)carbamoyl]-5-(2-methoxyethyl)-4-methylthiophene-2-sulfonamide], the IC50 was 155 nM.

Regarding `CCc1nc(NC(=O)NS(=O)(=O)c2cc(CCOC)c(C)s2)sc1Br` [Example 59, N-[(5-Bromo-4-ethyl-1,3-thiazol-2-yl)carbamoyl]-4-(2-methoxyethyl)-5-methylthiophene-2-sulfonamide], the IC50 is 434 nM.

Consider `CCc1sc(NC(=O)NS(=O)(=O)c2cc(C)c(CCOC)s2)nc1C` [Example 60, N-[(5-Ethyl-4-methyl-1,3-thiazol-2-yl)carbamoyl]-5-(2-methoxyethyl)-4-methylthiophene-2-sulfonamide], for which the IC50 stood at 341 nM.

For `CCc1nc(NC(=O)NS(=O)(=O)c2csc(C)c2)sc1OC` [Example 61, N-[(4-Ethyl-5-methoxy-1,3-thiazol-2-yl)carbamoyl]-5-methylthiophene-3-sulfonamide], the IC50 amounted to 466 nM.

`CCc1nc(NC(=O)NS(=O)(=O)c2csc(C)c2)sc1CC` [Example 62, N-[(4,5-Diethyl-1,3-thiazol-2-yl)carbamoyl]-5-methylthiophene-3-sulfonamide]: the IC50 stood at 214 nM.

In the case of `CCc1nc(NC(=O)NS(=O)(=O)c2cc(C)c(CCOC)s2)sc1CC` [Example 63, N-[(4,5-Diethyl-1,3-thiazol-2-yl)carbamoyl]-5-(2-methoxyethyl)-4-methylthiophene-2-sulfonamide], the IC50 was 393 nM.

On to `CC(=O)OCCc1sc(S(=O)(=O)NC(=O)Nc2nc(C)c(Br)s2)cc1C` [Example 64, 2-[5-({[(5-Bromo-4-methyl-1,3-thiazol-2-yl)carbamoyl]amino}sulfonyl)-3-methyl-2-thienyl]ethyl acetate], for which the IC50 turned out to be 188 nM.

With `Cc1cc(S(=O)(=O)NC(=O)Nc2nc(-c3ccccc3)c(C)s2)cs1` [Example 65, 5-Methyl-N-[(5-methyl-4-phenyl-1,3-thiazol-2-yl)carbamoyl]thiophene-3-sulfonamide], the IC50 stood at 300 nM.

For `COCCc1sc(S(=O)(=O)NC(=O)Nc2nc(-c3ccccc3)c(C)s2)cc1C` [Example 66, 5-(2-Methoxyethyl)-4-methyl-N-[(5-methyl-4-phenyl-1,3-thiazol-2-)carbamoyl]thiophene-2-sulfonamide], the IC50 is 160 nM.

As for `CCc1nc(NC(=O)NS(=O)(=O)c2cc(C)c(CCOC(C)=O)s2)sc1CC` [Example 67, 2-[5-({[(4,5-Diethyl-1,3-thiazol-2-yl)carbamoyl]amino}sulfonyl)-3-methyl-2-thienyl]ethyl acetate], the half-inhibitory concentration (IC50) amounted to 215 nM.

`CCc1sc(NC(=O)NS(=O)(=O)c2cc(C)c(CCOC(C)=O)s2)nc1C` [Example 68, 2-[5-({[(5-Ethyl-4-methyl-1,3-thiazol-2-yl)carbamoyl]amino}sulfonyl)-3-methyl-2-thienyl]ethyl acetate]: the IC50 was 149 nM.

`CCc1nc(NC(=O)NS(=O)(=O)c2cc(C)c(CCO)s2)sc1CC` [Example 69, N-[(4,5-Diethyl-1,3-thiazol-2-yl)carbamoyl]-5-(2-hydroxyethyl)-4-methylthiophene-2-sulfonamide]: the IC50 was 340 nM.

`CCc1sc(NC(=O)NS(=O)(=O)c2cc(C)c(CCO)s2)nc1C` [Example 70, N-[(5-Ethyl-4-methyl-1,3-thiazol-2-yl)carbamoyl]-5-(2-hydroxyethyl)-4-methylthiophene-2-sulfonamide]: the IC50 amounted to 417 nM.

On to `CCc1sc(NC(=O)NS(=O)(=O)c2csc(C)c2)nc1-c1ccccc1` [Example 71, N-[(5-Ethyl-4-phenyl-1,3-thiazol-2-yl)carbamoyl]-5-methylthiophene-3-sulfonamide], for which the half-maximal inhibitory concentration (IC50) is 159 nM.

In the case of `CCc1sc(NC(=O)NS(=O)(=O)c2cc(C)c(CCOC)s2)nc1-c1ccccc1` [Example 72, N-[(5-Ethyl-4-phenyl-1,3-thiazol-2-yl)carbamoyl]-5-(2-methoxyethyl)-4-methylthiophene-2-sulfonamide], the IC50 is 224 nM.

As to `CC(=O)OCCc1sc(S(=O)(=O)NC(=O)Nc2nc(-c3ccccc3)c(C)s2)cc1C` [Example 73, 2-[3-Methyl-5-({[(5-methyl-4-phenyl-1,3-thiazol-2-yl)carbamoyl]amino}sulfonyl)-2-thienyl]ethyl acetate], the IC50 was found to be 128 nM.

Regarding `COc1sc(NC(=O)NS(=O)(=O)c2cc(C)c(CCOC(C)=O)s2)nc1C` [Example 74, 2-[5-({[(5-Methoxy-4-methyl-1,3-thiazol-2-yl)carbamoyl]amino}sulfonyl)-3-methyl-2-thienyl]ethyl acetate], the IC50 is 454 nM.

In the case of `CCc1sc(NC(=O)NS(=O)(=O)c2cc(C)c(CCOC(C)=O)s2)nc1C(C)C` [Example 75, 2-[5-({[(5-Ethyl-4-isopropyl-1,3-thiazol-2-yl)carbamoyl]amino}sulfonyl)-3-methyl-2-thienyl]ethyl acetate], the IC50 was found to be 256 nM.

Consider `Cc1cc(S(=O)(=O)NC(=O)Nc2nc(-c3ccccc3)c(C)s2)sc1CCO` [Example 76, 5-(2-Hydroxyethyl)-4-methyl-N-[(5-methyl-4-phenyl-1,3-thiazol-2-yl)carbamoyl]thiophene-2-sulfonamide], for which the half-maximal inhibitory concentration (IC50) was determined as 280 nM.

On to `CCc1sc(NC(=O)NS(=O)(=O)c2cc(C)c(CCOC)s2)nc1C(C)C` [Example 77, N-[(5-Ethyl-4-isopropyl-1,3-thiazol-2-yl)carbamoyl]-5-(2-methoxyethyl)-4-methylthiophene-2-sulfonamide], for which the concentration for half-maximal inhibition (IC50) worked out at 366 nM.

Regarding `CCc1sc(NC(=O)NS(=O)(=O)c2csc(C)c2)nc1C(C)C` [Example 78, N-[(5-Ethyl-4-isopropyl-1,3-thiazol-2-yl)carbamoyl]-5-methylthiophene-3-sulfonamide], the half-maximal inhibitory concentration (IC50) was 168 nM.

In the case of `CCc1sc(NC(=O)NS(=O)(=O)c2cc(C)c(CCO)s2)nc1C(C)C` [Example 79, N-[(5-Ethyl-4-isopropyl-1,3-thiazol-2-yl)carbamoyl]-5-(2-hydroxyethyl)-4-methylthiophene-2-sulfonamide], the IC50 amounted to 188 nM.

For the molecule `CCc1sc(NC(=O)NS(=O)(=O)c2cc(C)c(CCOC(C)=O)s2)nc1-c1ccccc1` [Example 80, 2-[5-({[(5-Ethyl-4-phenyl-1,3-thiazol-2-yl)carbamoyl]amino}sulfonyl)-3-methyl-2-thienyl]ethyl acetate], the IC50 was 161 nM.

With `CCc1sc(NC(=O)NS(=O)(=O)c2cc(C)c(CCO)s2)nc1-c1ccccc1` [Example 81, N-[(5-Ethyl-4-phenyl-1,3-thiazol-2-yl)carbamoyl]-5-(2-hydroxyethyl)-4-methylthiophene-2-sulfonamide], the half-inhibitory concentration (IC50) was 102 nM.

For the molecule `CCc1nc(NC(=O)NS(=O)(=O)c2cc(C)c(CCOC)s2)sc1SC` [Example 82, N-{[4-Ethyl-5-(methylthio)-1,3-thiazol-2-yl]carbamoyl}-5-(2-methoxyethyl)-4-methylthiophene-2-sulfonamide], the IC50 stood at 144 nM.
